Tests used:
[1] = Chromatographic compatibility analyses (cation exchange, size exclusion, BAK method); assay type: physicochemical; settings: no interference in cation exchange, size exclusion and BAK chromatography; PBS pH 7.4
Protocol: A formulation was prepared having 0.03% w/v ranpirnase together with oxymetazoline or brimonidine. The formulations were analyzed by chromatography to verify whether the therapeutic agent interferes with ranpirnase. Several chromatography methods were employed, including cation exchange and size exclusion chromatography, as well as benzalkonium chloride (BAK) analysis.
(§1) For cation exchange chromatography, analysis was performed with the following solutions: diluent (PBS pH 7.4), oxymetazoline HCl (0.5 mg/mL), placebo, and ranpirnase. Oxymetazoline HCl (0.5 mg/mL) solution was prepared in diluent. Both ranpirnase and its placebo were removed from the refrigerator, warmed to room temperature, and vialed into HPLC vials.
as §1, with “size exclusion” for “cation exchange”, “on” for “with”
The benzalkonium chloride (BAK) analysis was performed on the following solutions: diluent (PBS pH 7.4), oxymetazoline HCl (0.05 mg/mL), placebo, and ranpirnase. Oxymetazoline HCl (0.5 mg/mL) solution (10×) was diluted to 0.05 mg/mL in diluent. […]

[2] = test system: epidemic keratoconjunctivitis (EKC); settings: eye drops tested clinically; cited from earlier work
NFκB = settings: in vitro study; cited from earlier work

With `Cc1cc(C(C)(C)C)c(O)c(C)c1CC1=NCCN1` [oxymetazoline, 3-(4,5-dihydro-1H-imidazol-2-ylmethyl)-2,4-dimethyl-6-tert-butyl-phenol] the “compatibility of formulating with ranpirnase in an ophthalmic formulation” value [1] was “compatibility”.

For `Nc1ccn(C[C@@H](CO)OCP(=O)(O)O)c(=O)n1` [cidofovir], the “clinical benefit in epidemic keratoconjunctivitis” value [2] is given as “no definitive benefit was observed”.

B1: ranpirnase: amphibian ribonuclease from Rana pipiens oocytes/early embryos, RNase A superfamily, about 12 kD (protein, UniProt P22069 1-104, looked up)
Protein P-30: QDWLTFQKKHITNTRDVDCDNIMSTNLFHCKDKNTFIYSRPEPVKAICKGIIASKNVLTTSEFYLSDCNVTSRPCKYKLKKSTNKFCVTCENQAPVHFVGVGSC
In the case of B1, the “translocation of NFκB into the nucleus” value (NFκB) is given as “inhibits translocation of NFκB into the nucleus”.

From patent publication US20230218726A1, “TREATMENT OF VIRAL CONJUNCTIVITIS” (Okogen, Inc., priority 2020, published 2023)
